IC50 data for 23 compounds are collected here from patent publication US20260070911A1, “INHIBITORS OF TAM RECEPTORS” (National Health Research Institutes, priority 2022, published 2026).

What all share (format): biochemical
The target of experiment [1] is T1, MERTK (Homo sapiens, UniProt Q12866).
T1 sequence (Q12866 21-999): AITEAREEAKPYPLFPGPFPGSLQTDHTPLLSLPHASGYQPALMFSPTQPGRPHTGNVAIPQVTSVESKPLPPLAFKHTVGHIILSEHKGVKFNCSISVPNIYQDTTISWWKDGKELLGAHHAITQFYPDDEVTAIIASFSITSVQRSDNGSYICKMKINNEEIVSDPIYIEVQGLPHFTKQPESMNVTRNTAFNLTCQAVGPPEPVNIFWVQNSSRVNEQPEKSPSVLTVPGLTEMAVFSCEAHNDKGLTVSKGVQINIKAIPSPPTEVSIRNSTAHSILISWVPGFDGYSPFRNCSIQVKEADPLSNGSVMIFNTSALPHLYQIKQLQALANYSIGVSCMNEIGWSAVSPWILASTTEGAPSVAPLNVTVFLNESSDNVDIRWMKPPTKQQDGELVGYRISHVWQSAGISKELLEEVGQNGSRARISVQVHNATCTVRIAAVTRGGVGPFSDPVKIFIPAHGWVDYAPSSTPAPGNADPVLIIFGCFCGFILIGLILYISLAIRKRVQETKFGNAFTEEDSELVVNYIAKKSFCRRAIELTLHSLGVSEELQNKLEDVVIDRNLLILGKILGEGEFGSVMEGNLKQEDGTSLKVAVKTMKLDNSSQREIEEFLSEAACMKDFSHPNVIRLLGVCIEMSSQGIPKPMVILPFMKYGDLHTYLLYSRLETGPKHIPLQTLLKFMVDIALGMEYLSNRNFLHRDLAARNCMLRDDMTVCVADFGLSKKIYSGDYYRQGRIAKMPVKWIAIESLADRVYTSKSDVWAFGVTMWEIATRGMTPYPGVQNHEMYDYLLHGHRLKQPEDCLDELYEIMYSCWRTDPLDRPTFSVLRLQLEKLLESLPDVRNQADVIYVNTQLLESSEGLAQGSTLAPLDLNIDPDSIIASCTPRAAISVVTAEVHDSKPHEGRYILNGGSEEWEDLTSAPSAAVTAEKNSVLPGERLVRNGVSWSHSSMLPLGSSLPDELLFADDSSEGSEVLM
Put plainly: MERTK enzymatic assay (Kinase Glo). The note with it: purified kinase, ATP 12 μM, read-out: MER Enzymatic Inhibition (%). The protocol: (§1) A purified kinase (AXL or MERTK) was incubated with a compound or DMSO (control) for 15 minutes in an assay buffer (25 mM Tri s pH 7.4, 10 mM MgCl2, 4 mM MnCl2, 2 mM DTT, 0.0100 BSA, 0.02% TritonX-100, 0.0100 Brij35 and 0.5 mM Na3VO4 for MERTK; and 40 mM Tri s pH 7.4, 20 mM MgCl2, 2 mM DTT, 0.01% BSA and 0.5 mM Na3VO4 for AXL). […] The mixture was incubated for 3 hours at 30° C. The luminescence was calculated to determine the kinase activity using a Kinase Glo assay kit for MERTK and an ADP-Glo Kinase Assay kit for AXL following the manufacture's instructions (Promega Corp., Madison, Wisconsin).
(§2) A study was conducted to compare exemplary compounds of formula (I) in inhibiting TAM activities, including MERTK, AXL, and TYRO3. An enzymatic assay was used in the study. A purified Kinase (i.e., MERTK, AXL, or TYRO3) was incubated with a compound or DMSO (control) for around 15 minutes in an assay buffer (25 mM Tris pH 7.4, 10 mM MgCl2, 4 mM MnCl2, 2 mM DTT, 0.01% BSA, 0.02% TritonX-100, 0.01% Brij35 and 0.5 mM Na3VO4 for MERTK; 40 mM Tris pH 7.4, 20 mM MgCl2, 2 mM DTT, 0.01% BSA and 0.5 mM Na3VO4 for AXL; and 25 mM Tris pH 7.4, 10 mM MgCl2, 4 mM MnCl2, 2 mM DTT, 0.01% BSA and 0.5 mM Na3VO4 for TYRO3). […] The mixture was incubated for 3 hours at 30° C. The luminescence was calculated to determine the kinase activity using a Kinase Glo assay kit for MERTK and an ADP-Glo Kinase assay kit for AXL and TYRO3 following the manufacture's instructions (Promega). Inhibition rates and half maximal inhibitory concentration (IC50) values were calculated. High percentage inhibition rates and low IC50 values are indicatives of high potency of the test compound.

The test system of experiment [2] is MER/AXL. The experiment can be described thus: Dual MER/AXL inhibition (enzymatic). To be noted: class for both MER and AXL. The protocol:
as §1

In experiment [3] the target is T2, AXL (Homo sapiens, UniProt P30530).
T2 sequence (P30530 26-894): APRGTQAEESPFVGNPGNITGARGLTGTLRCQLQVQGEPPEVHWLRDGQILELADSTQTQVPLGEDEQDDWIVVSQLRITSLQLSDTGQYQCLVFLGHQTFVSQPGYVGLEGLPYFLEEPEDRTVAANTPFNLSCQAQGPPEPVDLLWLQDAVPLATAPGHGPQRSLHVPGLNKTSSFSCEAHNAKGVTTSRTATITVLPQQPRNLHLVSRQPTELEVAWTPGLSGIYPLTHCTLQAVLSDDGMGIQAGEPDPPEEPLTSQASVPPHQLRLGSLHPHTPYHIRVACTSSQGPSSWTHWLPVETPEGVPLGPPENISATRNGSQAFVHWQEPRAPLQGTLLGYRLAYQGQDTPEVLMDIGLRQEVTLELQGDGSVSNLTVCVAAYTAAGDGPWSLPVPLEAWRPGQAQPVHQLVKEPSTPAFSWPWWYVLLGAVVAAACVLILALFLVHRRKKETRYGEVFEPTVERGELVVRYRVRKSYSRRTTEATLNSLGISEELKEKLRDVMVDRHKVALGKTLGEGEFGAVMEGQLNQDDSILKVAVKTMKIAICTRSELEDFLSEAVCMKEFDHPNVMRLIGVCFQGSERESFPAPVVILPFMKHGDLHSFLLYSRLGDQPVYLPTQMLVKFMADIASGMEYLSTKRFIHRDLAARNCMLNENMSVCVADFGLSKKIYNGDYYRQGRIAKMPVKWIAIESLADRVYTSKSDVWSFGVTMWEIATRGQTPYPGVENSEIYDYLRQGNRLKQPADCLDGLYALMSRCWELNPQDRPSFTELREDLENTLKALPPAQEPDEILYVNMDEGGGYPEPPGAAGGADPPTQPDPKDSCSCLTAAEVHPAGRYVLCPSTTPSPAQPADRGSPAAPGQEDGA
The experiment can be described thus: AXL enzymatic assay (ADP-Glo). The note with it: purified kinase, ATP 50 μM, read-out: AXL Enzymatic Inhibition (%). The protocol:
as §1, §2

Where only a bound is given, the exact number is not on record here.

Consider `O=C(Nc1ccc(Oc2ncnc3[nH]c(-c4ccsc4)cc23)cc1)c1cccn(-c2ccc(F)cc2)c1=O` [Compound 79], for which the IC50 in experiment [1], in experiment [2] and in experiment [3] was 100 to 50000 nM each time.
As for `CCOc1ccn(-c2ccc(F)cc2)c(=O)c1C(=O)Nc1ccc(Oc2ncnc3oc(-c4cnn(C)c4)c(-c4cccc(N)c4)c23)cc1` [Compound 19], the IC50 is 20 to 100 nM in experiment [1], 20 to 100 nM in experiment [2] and less than 20 nM in experiment [3].
On to `Cn1cc(-c2oc3ncnc(Oc4ccc(NC(=O)c5ccc[nH]c5=O)cc4)c3c2-c2cccc(N)c2)cn1` [Compound 77], for which the IC50 in experiment [1], in experiment [2] and in experiment [3] was 100 to 50000 nM in each case.
As to `CN(C)Cc1cccc(-c2n[nH]c3ncnc(Oc4ccc(NC(=O)c5cccn(-c6ccc(F)cc6)c5=O)cc4)c23)c1` [Compound 88], the IC50 in experiment [1] is 20 to 100 nM; in experiment [2] it was 20 to 100 nM; in experiment [3], less than 20 nM.
Regarding `Cn1cc(-c2oc3ncnc(Oc4ccc(NC(=O)c5cc(-c6ccc(F)cc6)on5)cc4)c3c2-c2cccc(N)c2)cn1` [Compound 115], the IC50 in experiment [1], in experiment [2] and in experiment [3] was 100 to 50000 nM each time.
Consider `Cn1cc(-c2oc3ncnc(Oc4ccc(NC(=O)c5cn(C)n(-c6ccc(F)cc6)c5=O)cc4)c3c2-c2ccccc2N)cn1` [Compound 141], for which the IC50 in experiment [1], in experiment [2] and in experiment [3] was 100 to 50000 nM in each case.
On to `O=C(Nc1ccc(Oc2ncnc3[nH]c(-c4ccccc4)cc23)cc1)c1cccn(-c2ccc(F)cc2)c1=O` [Compound 76], for which the IC50 in experiment [1], in experiment [2] and in experiment [3] was 100 to 50000 nM each time.
Consider `Cn1cc(-c2cc3c(Oc4ccc(NC(=O)c5cccn(-c6ccc(F)cc6)c5=O)cc4)ncnc3[nH]2)cn1` [Compound 78], for which the IC50 was 20 to 100 nM in experiment [1], 20 to 100 nM in experiment [2] and less than 20 nM in experiment [3].
Turning to `CN1CCN(c2cccc(-c3c(-c4cnn(C)c4)oc4ncnc(Oc5ccc(NC(=O)c6cccn(-c7ccc(F)cc7)c6=O)cc5)c34)c2)CC1` [Compound 38], the IC50 is 20 to 100 nM in experiment [1], 20 to 100 nM in experiment [2] and less than 20 nM in experiment [3].
Take `CC(=O)Nc1cccc(-c2c(-c3c(C)noc3C)oc3ncnc(Oc4ccc(NC(=O)c5cccn(-c6ccc(F)cc6)c5=O)cc4)c23)c1` [Compound 26]: the IC50 in experiment [1], in experiment [2] and in experiment [3] was 100 to 50000 nM throughout.
Consider `COc1nn(-c2ccc(C)cc2)cc1C(=O)Nc1ccc(Oc2ncnc3oc(-c4cnn(C)c4)c(-c4cccc(CN(C)C)c4)c23)cc1` [Compound 138], for which the IC50 in experiment [1], in experiment [2] and in experiment [3] was 100 to 50000 nM each time.
As to `O=C(Nc1ccc(Nc2ncnc3[nH]cc(C#Cc4ccccc4)c23)cc1)c1cccn(-c2ccc(F)cc2)c1=O` [Compound 13], the IC50 in experiment [1], in experiment [2] and in experiment [3] was 100 to 50000 nM throughout.
With `O=C(Nc1ccc(Oc2ncnc3oc(-c4ccccc4)cc23)cc1)c1cccn(-c2ccc(F)cc2)c1=O` [Compound 42], the IC50 in experiment [1], in experiment [2] and in experiment [3] was 100 to 50000 nM in each case.
In the case of `CC(=O)Nc1cccc(-c2c(-c3cnn(C)c3)oc3ncnc(Oc4ccc(NC(=O)c5c(C)n(C)n(-c6ccc(F)cc6)c5=O)cc4)c23)c1` [Compound 122], the values for the IC50 in experiment [1], in experiment [2] and in experiment [3] were 100 to 50000 nM, 100 to 50000 nM and less than 20 nM, respectively.
`CC(=O)Nc1cccc(-c2c(-c3ccsc3)oc3ncnc(Oc4ccc(NC(=O)c5cccn(-c6ccc(F)cc6)c5=O)cc4)c23)c1` [Compound 59]: the IC50 in experiment [1] was 100 to 50000 nM; in experiment [2] it was 100 to 50000 nM; in experiment [3], less than 20 nM.
As to `Cn1cc(-c2oc3ncnc(Oc4ccc(NC(=O)c5cccn(C6CCCCC6)c5=O)cc4)c3c2-c2cccc(N)c2)cn1` [Compound 83], the IC50 in experiment [1], in experiment [2] and in experiment [3] was 100 to 50000 nM in each case.
In the case of `CN(C)Cc1cccc(-c2c(-c3cnn(C)c3)oc3ncnc(Oc4ccc(NC(=O)c5cccn(-c6ccc(F)cc6F)c5=O)cc4)c23)c1` [Compound 93], the values for the IC50 in experiment [1], in experiment [2] and in experiment [3] were 20 to 100 nM, 20 to 100 nM and less than 20 nM, respectively.
For `CC(=O)Nc1cccc(-c2coc3ncnc(Oc4ccc(NC(=O)c5cccn(-c6ccc(F)cc6)c5=O)cc4)c23)c1` [Compound 47], the results for the IC50 in experiment [1], in experiment [2] and in experiment [3] were 100 to 50000 nM, 100 to 50000 nM and 20 to 100 nM, respectively.
Regarding `Cn1cc(-c2oc3ncnc(Oc4ccc(NC(=O)c5cccn(-c6ccc(F)c(F)c6)c5=O)cc4)c3c2-c2cccc(N)c2)cn1` [Compound 94], the IC50 in experiment [1] is 20 to 100 nM; in experiment [2] it was 20 to 100 nM; in experiment [3] it was less than 20 nM.
For `Nc1cccc(-c2c[nH]c3ncnc(Nc4ccc(NC(=O)c5cccn(-c6ccc(F)cc6)c5=O)cc4)c23)c1` [Compound 14], the IC50 in experiment [1] is 100 to 50000 nM; in experiment [2], 100 to 50000 nM; in experiment [3] it was less than 20 nM.
As for `CC(=O)Nc1cccc(-c2c(Br)oc3ncnc(Oc4ccc(NC(=O)c5cccn(-c6ccc(F)cc6)c5=O)cc4)c23)c1` [Compound 49], the IC50 lay in the range of 100 to 50000 nM in experiment [1] and 20 to 100 nM in experiment [3].
Regarding `CN(C)Cc1cccc(-c2c(-c3cnn(C)c3)oc3ncnc(Oc4ccc(NC(=O)c5cccn(-c6ccc(F)c(Cl)c6)c5=O)cc4)c23)c1` [Compound 97], the IC50 was 20 to 100 nM in experiment [1] and less than 20 nM in experiment [3].
In the case of `NCc1cccc(-c2c[nH]c3ncnc(Nc4ccc(NC(=O)c5cccn(-c6ccc(F)cc6)c5=O)cc4)c23)c1` [Compound 15], the figures for the IC50 in experiment [1] and in experiment [3] were 20 to 100 nM and 100 to 50000 nM, respectively.
